From patent US7250521B2, “Method for production of Δ1-pyrrolines” (Bayer CropScience Aktiengesellschaft, priority 2001, dated 2007) come the findings set out here.

This data set in a line: logP determination by HPLC on reverse-phase column (C 18), EEC directive 79/831 Annex V.A8. The data set is classed as physicochemical. As to the method:
In the acidic range, the determination is carried out at pH 2.3 using the mobile phases 0.1% aqueous phosphoric acid and acetonitrile; linear gradient from 10% acetonitrile to 90% acetonitrile.
In the neutral range, the determination is carried out at pH 7.5 using the mobile phases 0.01 molar aqueous phosphate buffer solution and acetonitrile; linear gradient from 10% acetonitrile to 90% acetonitrile.

The mark [1] stands for this setting: reverse-phase HPLC column (C 18), pH 2.3, acidic range, pH 2.3; 0.1% aqueous phosphoric acid/acetonitrile gradient; 43° C.; values marked a).
[2] abbreviates: reverse-phase HPLC column (C 18), pH 7.5, neutral range, pH 7.5; 0.01 molar aqueous phosphate buffer/acetonitrile gradient; 43° C.; values marked b).

As usually defined, the chromatographic logP is lipophilicity estimated from chromatographic retention. A lower chromatographic logP goes with a more hydrophilic compound. In turn, `CSc1ccc(C2CCC(c3ccccc3Br)=N2)cc1` (centres unmarked) [Example 58] returned a chromatographic logP under setting [1] of 2.5 and a chromatographic logP under setting [2] of 4.03.
`Fc1cccc(F)c1C1=NC(c2ccc(SCc3ccc(Cl)cc3)cc2)CC1` (centres unmarked) [Example 59] showed a chromatographic logP under setting [1] of 2.88.
Take `Fc1ccc(C2CCC(c3ccccc3Cl)=N2)c(F)c1` (centres unmarked) [Example 60]: the chromatographic logP came out at 2.9 under setting [1] and 3.96 under setting [2].
With `Cc1cc(Cl)ccc1C1CCC(c2cc(Cl)ccc2Cl)=N1` (centres unmarked) [Example 61], the chromatographic logP by setting is: under setting [1], 5.03; under setting [2], 5.33.
For `Cc1ccc(C2CCC(c3ccccc3Br)=N2)cc1Cl` (centres unmarked) [Example 62], the chromatographic logP runs as follows: under setting [1], 3.36; under setting [2], 4.69.
On the same counts, the results for `Fc1ccc(C2CCC(c3ccccc3F)=N2)cc1F` (centres unmarked) [Example 63] are 1.74 and 3.74.
On the same counts, the results for `Fc1ccc(C2CCC(c3ccc(C(F)(F)F)cc3)=N2)cc1` (centres unmarked) [Example 64] are 2.73 and 4.2.
As to `Fc1ccc(C2CCC(c3ccc(OC(F)(F)F)cc3)=N2)cc1` (centres unmarked) [Example 65], the chromatographic logP runs as follows: under setting [1], 2.23; under setting [2], 4.31.
Turning to `FC(F)(F)Oc1ccc(C2=NC(c3ccccc3)CC2)cc1` (centres unmarked) [Example 66], the chromatographic logP was found to be 2.02 under setting [1] and 4.26 under setting [2].
In the case of `Clc1ccccc1C1=NC(c2ccc(C3CCCCC3)cc2)CC1` (centres unmarked) [Example 67], the chromatographic logP under setting [2] worked out at 6.04.
Under setting [2], `Fc1ccccc1C1=NC(c2ccc(OC(F)(F)F)cc2)CC1` (centres unmarked) [Example 68] displayed a chromatographic logP of 4.41.
In the case of `Clc1cccc(C2=NC(c3ccccc3)CC2)c1Cl` (centres unmarked) [Example 69], the chromatographic logP under setting [2] came to 4.07.
For the compound `Clc1ccccc1C1=NC(c2ccc(CCc3ccccc3)cc2)CC1` (centres unmarked) [Example 70], the chromatographic logP by setting is: under setting [1], 3.47; under setting [2], 5.33.
For `Cc1ccc(C2CCC(c3ccccc3Cl)=N2)c(C)c1` (centres unmarked) [Example 71], in that order: 2.82 and 4.45.
Consider `Brc1ccc(C2=NC(c3ccccc3)CC2)cc1` (centres unmarked) [Example 72], for which the chromatographic logP runs as follows: under setting [1], 1.59; under setting [2], 4.06.
Regarding `Fc1cccc(F)c1C1=NC(c2ccc(OC(F)(F)F)cc2)CC1` (centres unmarked) [Example 73], the chromatographic logP under setting [2] is 4.13.
On to `Cc1ccc(C2CCC(c3ccccc3Cl)=N2)cc1` (centres unmarked) [Example 74], for which the chromatographic logP runs as follows: under setting [1], 1.96; under setting [2], 4.04.
Turning to `CC(=O)c1ccc(C2CCC(c3ccccc3Cl)=N2)cc1` (centres unmarked) [Example 75], the chromatographic logP stood at 1.88 under setting [1] and 3.06 under setting [2].
`Fc1ccccc1C1=NC(c2ccccc2)CC1` (centres unmarked) [Example 76]: the chromatographic logP was 1.16 under setting [1] and 3.45 under setting [2].
Regarding `Brc1ccccc1C1=NC(c2ccc(C3CCCCC3)cc2)CC1` (centres unmarked) [Example 77], the chromatographic logP by setting is: under setting [1], 4.23; under setting [2], 6.03.
For `Fc1cccc(F)c1C1=NC(c2ccc(C3CCCCC3)cc2)CC1` (centres unmarked) [Example 78], in that order: 3.84 and 5.56.
Turning to `Fc1ccccc1C1=NC(c2ccc(C3CCCCC3)cc2)CC1` (centres unmarked) [Example 79], the chromatographic logP is, setting by setting: under setting [1], 2.86; under setting [2], 5.95.
On to `Cc1ccc(C2CCC(c3ccccc3Br)=N2)c(C)c1` (centres unmarked) [Example 80], for which the chromatographic logP under setting [1] came to 2.55 and the chromatographic logP under setting [2] is 4.46.
On the same counts, the results for `Cc1ccc(C2CCC(c3ccccc3Br)=N2)cc1` (centres unmarked) [Example 81] are 2.17 and 4.07.
`Clc1ccc(C2CCC(c3ccccc3Cl)=N2)cc1` (centres unmarked) [Example 82] had a chromatographic logP under setting [1] of 2.6 and a chromatographic logP under setting [2] of 4.23.
Compound `Clc1ccc(C2CCC(c3ccccc3Br)=N2)cc1` (centres unmarked) [Example 83] came in with a chromatographic logP under setting [1] of 2.96 and a chromatographic logP under setting [2] of 4.22.
On the same counts, the results for `CC(=O)c1ccc(C2CCC(c3ccccc3Br)=N2)cc1` (centres unmarked) [Example 84] are 2.14 and 3.09.
With `CSc1ccc(C2CCC(c3ccccc3F)=N2)cc1` (centres unmarked) [Example 85], the chromatographic logP runs as follows: under setting [1], 1.62; under setting [2], 3.88.
As for `COc1ccc(C2CCC(c3ccccc3Cl)=N2)cc1` (centres unmarked) [Example 86], the chromatographic logP amounted to 1.66 under setting [1] and 3.47 under setting [2].
For the compound `COc1ccc(C2CCC(c3ccccc3F)=N2)cc1` (centres unmarked) [Example 87], the chromatographic logP stood at 1.21 under setting [1] and 3.32 under setting [2].
For `Brc1ccccc1C1=NC(c2ccc(CCc3ccccc3)cc2)CC1` (centres unmarked) [Example 88], in that order: 3.77 and 5.35.
Take `Clc1ccccc1C1=NC(c2ccc(Br)cc2)CC1` (centres unmarked) [Example 89]: the chromatographic logP by setting is: under setting [1], 2.76; under setting [2], 4.36.
`Clc1ccc(C2=NC(c3ccccc3)CC2)cc1` (centres unmarked) [Example 90] gave a chromatographic logP under setting [1] of 1.43.
`Clc1ccccc1C1=NC(c2ccccc2)CC1` (centres unmarked) [Example 91] had a chromatographic logP under setting [1] of 1.64 and a chromatographic logP under setting [2] of 3.61.
`Clc1ccc(C2=NC(c3ccc(Br)cc3)CC2)cc1` (centres unmarked) [Example 92] came in with a chromatographic logP under setting [1] of 2.17.
Still for that read-out and setting: with `Fc1cccc(F)c1C1=NC(c2ccccc2)CC1` (centres unmarked) [Example 93] the figure was 1.75.
With `Cc1ccccc1C1=NC(c2ccccc2)CC1` (centres unmarked) [Example 94], the chromatographic logP reads like this: under setting [1], 1.29; under setting [2], 3.7.
Turning to `Fc1ccc(C2CCC(c3ccccc3Cl)=N2)cc1` (centres unmarked) [Example 95], the chromatographic logP is 2 under setting [1] and 3.68 under setting [2].
In turn, `CCOC(=O)Oc1ccc(-c2ccc(C3CCC(c4ccccc4Cl)=N3)cc2)cc1` (centres unmarked) [Example 96] yielded a chromatographic logP under setting [1] of 3.14.
On the same count and under the same terms, with `Fc1ccccc1C1=NC(c2ccc(Br)cc2)CC1` (centres unmarked) [Example 97] the figure was 1.83; with `Brc1ccc(C2CCC(c3ccccc3Br)=N2)cc1` (centres unmarked) [Example 98], 3.11; with `Fc1ccc(C2CCC(c3ccccc3Br)=N2)cc1` (centres unmarked) [Example 99], 2.18.
`Fc1ccc(C2CCC(c3ccc(Br)cc3)=N2)cc1` (centres unmarked) [Example 100]: the chromatographic logP reads like this: under setting [1], 1.73; under setting [2], 4.14.
On the same counts, the results for `FC(F)(F)Oc1ccc(-c2ccc(C3CCC(c4ccc(Br)cc4)=N3)cc2)cc1` (centres unmarked) [Example 101] are 3.51 and 5.95.
Regarding `FC(F)(F)Oc1ccc(-c2ccc(C3CCC(c4ccccc4Br)=N3)cc2)cc1` (centres unmarked) [Example 102], the chromatographic logP under setting [1] worked out at 4.52 and the chromatographic logP under setting [2] was determined as 5.56.
`CC(C)Oc1cc(-c2ccccc2)ccc1C1CCC(c2ccccc2Cl)=N1` (centres unmarked) [Example 103] had a chromatographic logP under setting [1] of 3.26.
For `Oc1ccc(C2CCC(c3ccccc3F)=N2)cc1` (centres unmarked) [Example 104], the chromatographic logP under setting [1] turned out to be 0.59.
Still for that read-out and setting: the value for `FC(F)(F)Oc1ccc(C2=NC(c3cccc(Cl)c3)CC2)cc1` (centres unmarked) [Example 105] was 4.87; that for `Oc1ccc(C2CCC(c3c(F)cccc3F)=N2)cc1` (centres unmarked) [Example 106] was 0.91; that for `Fc1cccc(F)c1C1=NC(c2ccc(OCc3ccc(Cl)cc3)cc2)CC1` (centres unmarked) [Example 107] was 3.26.
Same read-out and setting: with `Fc1cccc(F)c1C1=NC(c2ccc(OCc3ccc(C(F)(F)F)cc3)cc2)CC1` (centres unmarked) [Example 108] the figure was 3.41.
The same measure, in the same setting: the value for `Fc1cccc(F)c1C1=NC(c2ccc(OCc3ccc(OC(F)(F)F)cc3)cc2)CC1` (centres unmarked) [Example 109] was 3.61; that for `CC(C)Oc1ccc(C2CCC(c3c(F)cccc3F)=N2)cc1` (centres unmarked) [Example 110] was 2.14.
Take `Cc1cc(OC(F)(F)F)ccc1-c1ccc(C2CCC(c3c(F)cccc3F)=N2)cc1` (centres unmarked) [Example 111]: the chromatographic logP under setting [1] amounted to 4.55.
The same measure, in the same setting: the value for `Cc1cc(-c2ccc(C3CCC(c4c(F)cccc4F)=N3)cc2)ccc1OC(F)(F)F` (centres unmarked) [Example 112] was 4.57; that for `Fc1cccc(F)c1C1=NC(c2ccc(-c3ccc(Br)cc3)cc2)CC1` (centres unmarked) [Example 113] was 3.98; that for `Fc1cc(F)c(C2=NC(c3ccc(-c4ccc(SC(F)(F)F)cc4)cc3)CC2)c(F)c1` (centres unmarked) [Example 114] was 5.05.
The same measure, in the same setting: with `Fc1ccc(F)c(C2=NC(c3ccc(-c4ccc(SC(F)(F)F)cc4)cc3)CC2)c1F` (centres unmarked) [Example 115] the figure was 5.46.
Under setting [1], `COc1ccc(C2=NC(c3ccc(-c4ccc(OC(F)(F)F)cc4)cc3)CC2)cc1` (centres unmarked) [Example 116] returned a chromatographic logP of 2.94.
The compound `Fc1cc(F)c(C2=NC(c3ccc(-c4ccc(OC(F)(F)F)cc4)cc3)CC2)c(F)c1` (centres unmarked) [Example 117] registered a chromatographic logP under setting [1] of 4.57.
In the case of `Fc1ccc(F)c(C2=NC(c3ccc(-c4ccc(OC(F)(F)F)cc4)cc3)CC2)c1F` (centres unmarked) [Example 118], the chromatographic logP under setting [1] turned out to be 5.05.
Same read-out and setting: the value for `O=C1CCC(c2ccc(OC(F)(F)F)cc2)N1` (centres unmarked) [Example V-1, 5-[4-(trifluoromethoxy)phenyl]-2-pyrrolidinone] was 2; that for `CCOc1cc(C(C)(C)C)ccc1C1CCC(=O)N1` (centres unmarked) [Example V-3, 5-(4-tert-butyl-2-ethoxyphenyl)-2-pyrrolidinone] was 2.84; that for `CC(C)(C)c1ccc(C2CCC(=O)N2)cc1` (centres unmarked) [Example V-4] was 1.9.
Same read-out and setting: the value for `CC(C)c1ccc(C2CCC(=O)N2)cc1` (centres unmarked) [Example V-5] was 2.13; that for `Cc1cc(Cl)ccc1C1CCC(=O)N1` (centres unmarked) [Example V-6] was 1.86; that for `Cc1ccc(C2CCC(=O)N2)c(Cl)c1` (centres unmarked) [Example V-7] was 1.92.
On the same count and under the same terms, with `O=C1CCC(c2ccc(Cl)cc2Cl)N1` (centres unmarked) [Example V-8] the figure was 2.02.
